Experimental findings from patent US20140107109A1, “AMINO-DIHYDROTHIAZINE AND AMINO-DIOXIDO DIHYDROTHIAZINE COMPOUNDS AS BETA-SECRETASE ANTAGONISTS AND METHODS OF USE” (Amgen Inc., priority 2012, published 2014) are described below.

Read-outs that look alike come from different tables or passages of the source.

In experiment [1] the target is Beta Secretase enzyme (BACE1) (Homo sapiens, UniProt P56817). In words: In vitro enzymatic BACE FRET assay. The note with it: read-out: BACE1 FRET assay IC50. The format is biochemical. The gist of the method: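 Readout: dequenched fluorescence (ex 488 nm/[…]) after neutralizing with Tris buffer. Reactions, begun by adding 50 nM quenched peptide substrate spanning the BACE cleavage site, were incubated one hour at pH 4.2 in 0.05 M acetate with 100 uM genapol and 10% final DMSO.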
Sequence of Beta Secretase enzyme (BACE1) (P56817 46-501): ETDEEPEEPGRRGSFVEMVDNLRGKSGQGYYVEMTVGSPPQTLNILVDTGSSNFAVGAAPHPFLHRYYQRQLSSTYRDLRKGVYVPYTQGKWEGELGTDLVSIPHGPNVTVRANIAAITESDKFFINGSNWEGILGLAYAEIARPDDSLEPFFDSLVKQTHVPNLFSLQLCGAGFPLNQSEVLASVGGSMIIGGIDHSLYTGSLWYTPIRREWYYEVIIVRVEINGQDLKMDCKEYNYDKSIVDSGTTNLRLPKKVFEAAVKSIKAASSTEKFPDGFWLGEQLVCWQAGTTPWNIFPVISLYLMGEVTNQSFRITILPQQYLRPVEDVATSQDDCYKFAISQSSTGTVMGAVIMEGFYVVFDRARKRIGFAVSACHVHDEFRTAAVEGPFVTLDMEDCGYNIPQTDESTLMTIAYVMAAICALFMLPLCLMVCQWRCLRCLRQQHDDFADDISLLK

For experiment [2], the system named is Aβ40 in conditioned medium of cells stably expressing Amyloid Precursor Protein (APP). In words: In vitro BACE cell-based assay (HEK cell assay), Aβ40 sandwich ELISA. The gist of the method:
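Aβ40 in conditioned medium was quantified by time-resolved fluorescence sandwich ELISA (pAb40 capture 3 h at 4 °C, biotin-6E10 detection 2 h at 4 °C) after 24 h compound exposure of APP-expressing cells. Doses spanned 10 points from 100 μM or 10 μM top, 0.1% DMSO; IC50 was derived from percent of control.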
A general note: An ELISA detects its analyte on a solid surface through an enzyme-linked reagent.

Experiment [3] addresses T1, Cathepsin D (Cat D) (Homo sapiens, UniProt P07339).
T1 construct: Recombinant Cat D was expressed in CHO cells; made in house; host or cells: CHO cells
Briefly: In vitro enzymatic Cathepsin D (Cat D) FRET assay. The experiment is classed as biochemical. The note with it: read-out: CatD IC50. The gist of the method: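 FRET read-out: a fluorophore/quencher-labelled peptide substrate is cleaved by 9 nM Cat D (recombinant, CHO-expressed) following a one-hour preincubation with inhibitor dilutions in DMSO. Tris buffer added to neutralize pH ends the reaction before fluorescence measurement.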

The mark [4] stands for this setting: Homo sapiens, HEK293, average IC50, cell assay.
Setting [5] is: Homo sapiens, HEK293, average IC50, HEK cell assay.

T1 sequence (P07339 65-412, species assumed): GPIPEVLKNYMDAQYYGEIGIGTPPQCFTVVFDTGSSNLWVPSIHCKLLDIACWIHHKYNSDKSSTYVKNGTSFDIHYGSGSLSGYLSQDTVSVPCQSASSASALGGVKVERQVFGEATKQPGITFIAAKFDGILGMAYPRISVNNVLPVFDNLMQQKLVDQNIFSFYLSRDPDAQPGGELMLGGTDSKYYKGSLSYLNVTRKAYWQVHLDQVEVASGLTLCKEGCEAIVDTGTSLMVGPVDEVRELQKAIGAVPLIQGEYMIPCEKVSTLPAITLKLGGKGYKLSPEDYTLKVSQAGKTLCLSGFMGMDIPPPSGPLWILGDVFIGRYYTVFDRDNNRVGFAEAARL

In the case of `NC1=N[C@@](CF)(c2cc(Br)ccc2F)CS(=O)(=O)C12CCC2` [Example 418, (7R)-7-(5-bromo-2-fluorophenyl)-7-(fluoromethyl)-5-thia-8-azaspiro[3.5]non-8-en-9-amine 5,5-dioxide], the IC50 (in general, the point on the concentration scale where inhibition reaches its midpoint) in experiment [1] (average IC50, enzyme assay) was over 40 µM; in experiment [2] (setting [4]), over 15.6 µM; in experiment [3], over 400 µM.

As to `COCc1cc(Cl)cnc1C(=O)Nc1ccc(F)c([C@]2(C)CS(=O)(=O)C(C)(C)C(N)=N2)c1` [Example 351, N-(3-((3R)-5-amino-3,6,6-trimethyl-1,1-dioxido-3,6-dihydro-2H-1,4-thiazin-3-yl)-4-fluorophenyl)-5-chloro-3-(methoxymethyl)-2-pyridinecarboxamide], the IC50 in experiment [1] (average IC50, enzyme assay) was 0.00052 µM; in experiment [2] (setting [5]) it was 0.0027 µM; in experiment [3], over 14.8 µM.

Turning to `Cc1cc(OCC2CC2)cnc1C(=O)Nc1ccc(F)c([C@]2(CF)CS(=O)(=O)C3(CCC3)C(N)=N2)c1` [Example 371, N-(3-((7S)-9-amino-7-(fluoromethyl)-5,5-dioxido-5-thia-8-azaspiro[3.5]non-8-en-7-yl)-4-fluorophenyl)-5-(cyclopropylmethoxy)-3-methyl-2-pyridinecarboxamide], the half-inhibitory concentration (IC50) in experiment [1] is 0.00156 µM; in experiment [2] (Homo sapiens, HEK293) it was 0.077 µM; in experiment [3] it was 391 µM.

As to `CCOc1cnc2c(Nc3ccc(F)c([C@]4(CF)CS(=O)(=O)C5(CCC5)C(N)=N4)c3)nccc2n1` [Example 238, N-(3-((7S)-9-amino-7-(fluoromethyl)-5,5-dioxido-5-thia-8-azaspiro[3.5]non-8-en-7-yl)-4-fluorophenyl)-2-ethoxypyrido[3,4-b]pyrazin-5-amine], the concentration for half-maximal inhibition (IC50) in experiment [1] (average IC50, enzyme assay) was 0.00399 µM; in experiment [2] (setting [4]) it was 0.117 µM; in experiment [3], over 400 µM.

In the case of `COc1cnc(C(=O)Nc2ccc(F)c(C3(CF)CS(=O)(=O)C(C)(C)C(N)=N3)c2)cn1` (stereo not drawn) [Example 31, N-(3-(-5-amino-3-(fluoromethyl)-6,6-dimethyl-1,1-dioxido-3,6-dihydro-2H-1,4-thiazin-3-yl)-4-fluorophenyl)-5-methoxy-2-pyrazinecarboxamide], the IC50 in experiment [1] was 0.0038 µM; in experiment [2] (Homo sapiens, HEK293, Aβ40, 24 h incubation) it was 0.0279 µM; in experiment [3], over 400 µM.

In the case of `CCc1cc(Cl)cnc1C(=O)Nc1ccc(F)c([C@]2(CF)CS(=O)(=O)C(C)(C)C(N)=N2)c1` [Example 197, (S)—N-(3-(5-amino-3-(fluoromethyl)-6,6-dimethyl-1,1-dioxido-3,6-dihydro-2H-1,4-thiazin-3-yl)-4-fluorophenyl)-5-chloro-3-ethylpicolinamide], the half-inhibitory concentration (IC50) in experiment [1] (average IC50, enzyme assay) was 0.00146 µM; in experiment [2] (setting [5]), 0.208 µM; in experiment [3], 416 µM.

Turning to `COCc1cc(Cl)cnc1C(=O)Nc1ccc(F)c([C@]2(CF)CS(=O)(=O)C3(CCC3)C(N)=N2)c1` [Example 370, N-(3-((7S)-9-amino-7-(fluoromethyl)-5,5-dioxido-5-thia-8-azaspiro[3.5]non-8-en-7-yl)-4-fluorophenyl)-5-chloro-3-(methoxymethyl)-2-pyridinecarboxamide], the IC50 in experiment [1] was 0.00081 µM; in experiment [2] (Homo sapiens, HEK293), 0.0273 µM; in experiment [3] it was over 400 µM.

For `Cc1cc(OC(F)F)cnc1C(=O)Nc1ccc(F)c([C@]2(C)CS(=O)(=O)C3(CC(F)(F)C3)C(N)=N2)c1` [Example 126, (R)—N-(3-(9-amino-2,2-difluoro-7-methyl-5,5-dioxido-5-thia-8-azaspiro[3.5]non-8-en-7-yl)-4-fluorophenyl)-5-(difluoromethoxy)-3-methylpicolinamide], the IC50 was found to be 0.00376 µM in experiment [1]; 0.0177 µM in experiment [2] (Homo sapiens, HEK293); 45.6 µM in experiment [3].

As to `CC1(C)C(N)=N[C@](C)(c2cc(Oc3nccc4nc(C(F)(F)F)cnc34)ccc2F)CS1(=O)=O` [Example 253, (5R)-5-(2-fluoro-5-((2-(trifluoromethyl)pyrido[3,4-b]pyrazin-5-yl)oxy)phenyl)-2,2,5-trimethyl-5,6-dihydro-2H-1,4-thiazin-3-amine 1,1-dioxide], the IC50 in experiment [1] (average IC50, enzyme assay) was 0.0276 µM; in experiment [2] (setting [4]), 1.03 µM; in experiment [3], 1410 µM.

As for “N-(3-((4aR,7aS)-3-amino-2,2-dimethyl-1,1-dioxido-7,7a-dihydro-2H-furo[3,4-b][1,4]thiazin-4a(5H)-yl)-4-fluorophenyl)-5-chloro-2-pyridinecarboxamide, N-(3-((4aS,7aR)-3-amino-2,2-dimethyl-1,1-dioxido-7,7a-dihydro-2H-furo[3,4-b][1,4]thiazin-4a(5H)-yl)-4-fluorophenyl)-5-chloro-2-pyridinecarboxamide [Example 426]”, the 50% inhibitory concentration (IC50) in experiment [1] (average IC50, enzyme assay) amounted to 0.0015 µM; in experiment [2] (average IC50, cell assay), 0.0136 µM; in experiment [3], 170 µM.

Turning to `COc1cnc(C(=O)Nc2ccc(F)c([C@]3(C)CS(=O)(=O)C(C)(C)C(N)=N3)c2)c(C)c1` [Example 357, N-(3-((3R)-5-amino-3,6,6-trimethyl-1,1-dioxido-3,6-dihydro-2H-1,4-thiazin-3-yl)-4-fluorophenyl)-5-methoxy-3-methyl-2-pyridinecarboxamide], the IC50 in experiment [1] (average IC50, enzyme assay) amounted to 0.00283 µM; in experiment [2] (setting [5]) it was 0.0025 µM; in experiment [3], 228 µM.

For the compound `CC1(C)C(N)=N[C@](CF)(c2cc(Nc3ncc(F)c4cc(O)cnc34)ccc2F)CS1(=O)=O` [Example 433, 8-((3-((3S)-5-amino-3-(fluoromethyl)-6,6-dimethyl-1,1-dioxido-3,6-dihydro-2H-1,4-thiazin-3-yl)-4-fluorophenyl)amino)-5-fluoro-1,7-naphthyridin-3-ol], the IC50 is 0.0006 µM in experiment [1] (average IC50, enzyme assay); 0.0314 µM in experiment [2] (setting [4]); 111 µM in experiment [3].

For the compound `CC1(C)C(N)=N[C@](C)(c2cc(NC(=O)c3cnc4ccccc4n3)ccc2F)CS1(=O)=O` [Example 316, N-(3-((3R)-5-amino-3,6,6-trimethyl-1,1-dioxido-3,6-dihydro-2H-1,4-thiazin-3-yl)-4-fluorophenyl)-2-quinoxalinecarboxamide], the IC50 was found to be 0.0412 µM in experiment [1] (average IC50, enzyme assay); 0.018 µM in experiment [2] (setting [5]); 36.6 µM in experiment [3].

Turning to `C[C@@]1(c2cc(Br)ccc2F)CS(=O)(=O)[C@]2(C[C@@H](F)C2)C(N)=N1` [Example 118, (2S,4s,7R)-9-amino-7-(5-bromo-2-fluorophenyl)-2-fluoro-7-methyl-5-thia-8-azaspiro[3.5]non-8-ene 5,5-dioxide], the half-inhibitory concentration (IC50) in experiment [1] (average IC50, enzyme assay) was 4.09 µM; in experiment [2] (setting [4]), over 15.6 µM; in experiment [3] it was 31.1 µM.

For the compound `Cc1cc(Cl)cnc1C(=O)Nc1ccc(F)c([C@@]2(C)N=C(N)C3(CC3)S(=O)(=O)[C@H]2F)c1` [Example 205, N-(3-((5R,6R)-8-amino-5-fluoro-6-methyl-4,4-dioxido-4-thia-7-azaspiro[2.5]oct-7-en-6-yl)-4-fluorophenyl)-5-chloro-3-methylpicolinamide], the IC50 in experiment [1] was 0.00044 µM; in experiment [2] (Homo sapiens, HEK293) it was 0.0026 µM; in experiment [3], 28 µM.

As for `COc1cnc(C(=O)Nc2ccc(F)c([C@@]3(C)N=C(N)C(C)(C)S(=O)(=O)C3F)c2)c(C)c1` (stereo partly drawn) [Example 337, N-(3-((3R)-5-amino-2-fluoro-3,6,6-trimethyl-1,1-dioxido-3,6-dihydro-2H-1,4-thiazin-3-yl)-4-fluorophenyl)-5-methoxy-3-methyl-2-pyridinecarboxamide], the IC50 worked out at 0.00313 µM in experiment [1] (average IC50, enzyme assay); 0.0097 µM in experiment [2] (setting [5]); 233 µM in experiment [3].

Turning to `C[C@]1(c2cc(NC(=O)c3ccc(Cl)cn3)ccc2F)N=C(N)C2(CCC2)S(=O)(=O)[C@@H]1F` [Example 131, N-(3-((6S,7R)-9-amino-6-fluoro-7-methyl-5,5-dioxido-5-thia-8-azaspiro[3.5]non-8-en-7-yl)-4-fluorophenyl)-5-chloropicolinamide], the IC50 in experiment [1] was determined as 0.0016 µM; in experiment [2] (Homo sapiens, HEK293), 0.00901 µM; in experiment [3], 162 µM.

For `C[C@]1(F)C(N)=N[C@](C)(c2cc(NC(=O)c3ccc(C(F)F)cn3)ccc2F)CS1(=O)=O` [Example 319, N-(3-((3R,6R)-5-amino-6-fluoro-3,6-dimethyl-1,1-dioxido-3,6-dihydro-2H-1,4-thiazin-3-yl)-4-fluorophenyl)-5-(difluoromethyl)-2-pyridinecarboxamide], the IC50 in experiment [1] (average IC50, enzyme assay) was 0.00162 µM; in experiment [2] (setting [5]) it was 0.07 µM; in experiment [3], over 400 µM.

On to `CC1(C)C(N)=N[C@](CF)(c2cc(NC(=O)c3ccc(C(F)F)cn3)ccc2F)CS1(=O)=O` [Example 361, N-(3-((3S)-5-amino-3-(fluoromethyl)-6,6-dimethyl-1,1-dioxido-3,6-dihydro-2H-1,4-thiazin-3-yl)-4-fluorophenyl)-5-(difluoromethyl)-2-pyridinecarboxamide], for which the IC50 in experiment [1] (average IC50, enzyme assay) came out at 0.0008 µM; in experiment [2] (setting [5]) it was 0.0193 µM; in experiment [3], 437 µM.

On to `Cc1cc(Cl)ccc1C(=O)Nc1ccc(F)c([C@]2(C)CS(=O)(=O)C(C)(C)C(N)=N2)c1` [Example 353, N-(3-((3R)-5-amino-3,6,6-trimethyl-1,1-dioxido-3,6-dihydro-2H-1,4-thiazin-3-yl)-4-fluorophenyl)-4-chloro-2-methylbenzamide], for which the IC50 in experiment [1] (average IC50, enzyme assay) was found to be 0.00652 µM; in experiment [2] (setting [5]), 0.0166 µM; in experiment [3], 708 µM.
